Results taken from PubChem BioAssay AID1963832 (Molecular Pharmacology Branch, DTP, NCI, 2024).

Tested on: 885724-159-R-J1-PDC complex spheroid viability
Assay: Anticancer human tumor 885724-159-R-J1-PDC patient-derived pancreatic adenocarcinoma cell line growth inhibition [POLQ]
Settings: for IC50: curve of first compound; for viability, T/C: stronger effect = lower value; active = viability on the fitted dose curve at most 10% of control; inactive = the rest
Outline: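 Growth inhibition in 3D: complex spheroids (tumor PDC, HUVEC, MSC) treated with POLQ inhibitor combinations; where Cmax unknown, highest tested concentration 10 microM, except SN-38 at 1 microM.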

[1] = second compound 0.0316 µM, first compound 0.0316 µM
[2] = second compound 0.0316 µM, first compound 0.1 µM
[3] = second compound 0.0316 µM, first compound 0.316 µM
[4] = second compound 0.0316 µM, first compound 1 µM
[5] = second compound 0.0316 µM, first compound 3.16 µM
[6] = second compound 0.0316 µM, first compound 10 µM
[7] = second compound 0.1 µM, first compound 0.0316 µM
[8] = second compound 0.1 µM, first compound 0.1 µM
[9] = second compound 0.1 µM, first compound 0.316 µM
[10] = second compound 0.1 µM, first compound 1 µM
[11] = second compound 0.1 µM, first compound 3.16 µM
[12] = second compound 0.1 µM, first compound 10 µM
[13] = second compound 0.316 µM, first compound 0.0316 µM
[14] = second compound 0.316 µM, first compound 0.1 µM
[15] = second compound 0.316 µM, first compound 0.316 µM
[16] = second compound 0.316 µM, first compound 1 µM
[17] = second compound 0.316 µM, first compound 3.16 µM
[18] = second compound 0.316 µM, first compound 10 µM
[19] = second compound 1 µM, first compound 0.0316 µM
[20] = second compound 1 µM, first compound 0.1 µM
[21] = second compound 1 µM, first compound 0.316 µM
[22] = second compound 1 µM, first compound 1 µM
[23] = second compound 1 µM, first compound 3.16 µM
[24] = second compound 1 µM, first compound 10 µM
[25] = second compound 3.16 µM, first compound 0.0316 µM
[26] = second compound 3.16 µM, first compound 0.1 µM
[27] = second compound 3.16 µM, first compound 0.316 µM
[28] = second compound 3.16 µM, first compound 1 µM
[29] = second compound 3.16 µM, first compound 3.16 µM
[30] = second compound 3.16 µM, first compound 10 µM
[31] = second compound 10 µM, first compound 0.0316 µM
[32] = second compound 10 µM, first compound 0.1 µM
[33] = second compound 10 µM, first compound 0.316 µM
[34] = second compound 10 µM, first compound 1 µM
[35] = second compound 10 µM, first compound 3.16 µM
[36] = second compound 10 µM, first compound 10 µM
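Note: spheroids exposed to compounds for 7 days.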

CC(C)n1c(=O)n(C)c2cnc3cc(F)c(-c4ccc(OCCCN5CCCCC5)nc4)cc3c21 + COC1C(OC(N)=O)C(O)C(Oc2ccc3c(O)c(NC(=O)c4ccc(O)c(CC=C(C)C)c4)c(=O)oc3c2C)OC1(C)C
inactive: viability, T/C [1] 89.6% | viability, T/C [2] 89.6% | viability, T/C [3] 97.5% | viability, T/C [4] 88.9% | viability, T/C [5] 88.3% | viability, T/C [6] 84.4% | viability, T/C [7] 96.5% | viability, T/C [8] 99.4% | viability, T/C [9] 100% | viability, T/C [10] 100% | viability, T/C [11] 91.1% | viability, T/C [12] 105% | viability, T/C [13] 99.4% | viability, T/C [14] 86.6% | viability, T/C [15] 93.5% | viability, T/C [16] 93.7% | viability, T/C [17] 91.8% | viability, T/C [18] 86.1% | viability, T/C [19] 104% | viability, T/C [20] 96.5% | viability, T/C [21] 104% | viability, T/C [22] 90% | viability, T/C [23] 97% | viability, T/C [24] 77.8% | viability, T/C [25] 99.5% | viability, T/C [26] 92.5% | viability, T/C [27] 94.3% | viability, T/C [28] 98% | viability, T/C [29] 98.7% | viability, T/C [30] 93.2% | viability, T/C [31] 100% | viability, T/C [32] 94.9% | viability, T/C [33] 114% | viability, T/C [34] 91.9% | viability, T/C [35] 88.8% | viability, T/C [36] 93.2%
> 10 µM: IC50 (second compound 0.0316 µM) | IC50 (second compound 0.1 µM) | IC50 (second compound 0.316 µM) | IC50 (second compound 1 µM) | IC50 (second compound 3.16 µM) | IC50 (second compound 10 µM)

CC(C)n1c(=O)n(C)c2cnc3cc(F)c(-c4ccc(OCCCN5CCCCC5)nc4)cc3c21 + Cc1cccc(N(C)C(=O)C2C(O)CCN2c2nc(C)cc(C(F)(F)F)c2C#N)c1
> 10 µM: IC50 (second compound 0.0316 µM) | IC50 (second compound 0.1 µM) | IC50 (second compound 0.316 µM) | IC50 (second compound 1 µM) | IC50 (second compound 3.16 µM) | IC50 (second compound 10 µM)
inactive: viability, T/C [1] 104% | viability, T/C [2] 104% | viability, T/C [3] 99.9% | viability, T/C [4] 97.8% | viability, T/C [5] 93.9% | viability, T/C [6] 68.8% | viability, T/C [7] 108% | viability, T/C [8] 95.8% | viability, T/C [9] 109% | viability, T/C [10] 91.2% | viability, T/C [11] 96.8% | viability, T/C [12] 72.2% | viability, T/C [13] 109% | viability, T/C [14] 102% | viability, T/C [15] 102% | viability, T/C [16] 98.8% | viability, T/C [17] 99.3% | viability, T/C [18] 66.6% | viability, T/C [19] 104% | viability, T/C [20] 100% | viability, T/C [21] 104% | viability, T/C [22] 116% | viability, T/C [23] 87.7% | viability, T/C [24] 60.2% | viability, T/C [25] 106% | viability, T/C [26] 112% | viability, T/C [27] 107% | viability, T/C [28] 102% | viability, T/C [29] 86.2% | viability, T/C [30] 61.3% | viability, T/C [31] 106% | viability, T/C [32] 95.4% | viability, T/C [33] 111% | viability, T/C [34] 101% | viability, T/C [35] 88.9% | viability, T/C [36] 60.7%

CCCS(=O)(=O)Nc1ccc(F)c(C(=O)c2c[nH]c3ncc(-c4ccc(Cl)cc4)cc23)c1F + COC1C(OC(N)=O)C(O)C(Oc2ccc3c(O)c(NC(=O)c4ccc(O)c(CC=C(C)C)c4)c(=O)oc3c2C)OC1(C)C
> 10 µM: IC50 (second compound 0.0316 µM) | IC50 (second compound 0.1 µM) | IC50 (second compound 0.316 µM) | IC50 (second compound 1 µM) | IC50 (second compound 3.16 µM) | IC50 (second compound 10 µM)
inactive: viability, T/C [1] 106% | viability, T/C [2] 114% | viability, T/C [3] 140% | viability, T/C [4] 148% | viability, T/C [5] 137% | viability, T/C [6] 65.9% | viability, T/C [7] 109% | viability, T/C [8] 114% | viability, T/C [9] 130% | viability, T/C [10] 157% | viability, T/C [11] 143% | viability, T/C [12] 67.8% | viability, T/C [13] 104% | viability, T/C [14] 121% | viability, T/C [15] 131% | viability, T/C [16] 163% | viability, T/C [17] 137% | viability, T/C [18] 76.6% | viability, T/C [19] 108% | viability, T/C [20] 107% | viability, T/C [21] 123% | viability, T/C [22] 145% | viability, T/C [23] 139% | viability, T/C [24] 68.1% | viability, T/C [25] 110% | viability, T/C [26] 103% | viability, T/C [27] 122% | viability, T/C [28] 154% | viability, T/C [29] 151% | viability, T/C [30] 82.4% | viability, T/C [31] 111% | viability, T/C [32] 114% | viability, T/C [33] 128% | viability, T/C [34] 139% | viability, T/C [35] 152% | viability, T/C [36] 76.3%

C=CC(=O)N1CCN(c2nc(=O)n(-c3c(C)ccnc3C(C)C)c3nc(-c4c(O)cccc4F)c(F)cc23)C(C)C1 (stereo not drawn) + Cc1cccc(N(C)C(=O)C2C(O)CCN2c2nc(C)cc(C(F)(F)F)c2C#N)c1
> 10 µM: IC50 (second compound 0.0316 µM) | IC50 (second compound 0.1 µM) | IC50 (second compound 0.316 µM) | IC50 (second compound 1 µM) | IC50 (second compound 3.16 µM) | IC50 (second compound 10 µM)
inactive: viability, T/C [1] 105% | viability, T/C [2] 90.7% | viability, T/C [3] 99.5% | viability, T/C [4] 97.8% | viability, T/C [5] 104% | viability, T/C [6] 96.4% | viability, T/C [7] 95.4% | viability, T/C [8] 86.6% | viability, T/C [9] 99.1% | viability, T/C [10] 96.8% | viability, T/C [11] 108% | viability, T/C [12] 88.7% | viability, T/C [13] 98.6% | viability, T/C [14] 95% | viability, T/C [15] 91.3% | viability, T/C [16] 105% | viability, T/C [17] 105% | viability, T/C [18] 88% | viability, T/C [19] 94.8% | viability, T/C [20] 92.1% | viability, T/C [21] 95.3% | viability, T/C [22] 108% | viability, T/C [23] 103% | viability, T/C [24] 92.3% | viability, T/C [25] 98.5% | viability, T/C [26] 94.7% | viability, T/C [27] 98.8% | viability, T/C [28] 99.4% | viability, T/C [29] 110% | viability, T/C [30] 88.7% | viability, T/C [31] 95.4% | viability, T/C [32] 91.8% | viability, T/C [33] 96.1% | viability, T/C [34] 109% | viability, T/C [35] 107% | viability, T/C [36] 93.2%
